Laboratory results taken from ChEMBL document CHEMBL1201862, “PubChem BioAssay data set” (2004).
Active and inactive are the calls of the source.

Assays:
[1] = biological target: T1, Coagulation factor XII (Homo sapiens, UniProt P00748); experiment: FXIIa inhibitor potency, concentration-response, biochemical (AID 716); assay type: functional
T1 sequence (P00748 whole entry): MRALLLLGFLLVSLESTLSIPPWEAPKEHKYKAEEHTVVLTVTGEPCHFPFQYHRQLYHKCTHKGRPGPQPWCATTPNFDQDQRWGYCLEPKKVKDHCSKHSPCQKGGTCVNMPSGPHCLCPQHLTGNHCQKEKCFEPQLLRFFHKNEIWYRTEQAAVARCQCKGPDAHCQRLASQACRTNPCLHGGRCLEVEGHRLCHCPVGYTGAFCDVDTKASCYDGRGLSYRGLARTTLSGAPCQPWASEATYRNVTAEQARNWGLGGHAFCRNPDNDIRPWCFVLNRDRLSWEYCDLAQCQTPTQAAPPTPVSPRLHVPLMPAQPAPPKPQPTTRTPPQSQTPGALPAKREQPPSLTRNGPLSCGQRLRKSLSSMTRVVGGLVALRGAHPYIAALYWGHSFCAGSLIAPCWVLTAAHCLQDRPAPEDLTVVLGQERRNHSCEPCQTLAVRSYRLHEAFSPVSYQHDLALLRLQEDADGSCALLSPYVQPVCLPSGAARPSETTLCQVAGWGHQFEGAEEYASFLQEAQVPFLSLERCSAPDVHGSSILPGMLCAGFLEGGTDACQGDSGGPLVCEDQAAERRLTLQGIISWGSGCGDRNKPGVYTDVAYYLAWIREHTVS

[2] = biological target: T2, Polyadenylate-binding protein 1 (Homo sapiens, UniProt P11940); experiment: PABP poly(A) RNA binding inhibitors, primary screen, biochemical, fluorescence polarization, uHTS (AID 2014)
T2 sequence (P11940 whole entry): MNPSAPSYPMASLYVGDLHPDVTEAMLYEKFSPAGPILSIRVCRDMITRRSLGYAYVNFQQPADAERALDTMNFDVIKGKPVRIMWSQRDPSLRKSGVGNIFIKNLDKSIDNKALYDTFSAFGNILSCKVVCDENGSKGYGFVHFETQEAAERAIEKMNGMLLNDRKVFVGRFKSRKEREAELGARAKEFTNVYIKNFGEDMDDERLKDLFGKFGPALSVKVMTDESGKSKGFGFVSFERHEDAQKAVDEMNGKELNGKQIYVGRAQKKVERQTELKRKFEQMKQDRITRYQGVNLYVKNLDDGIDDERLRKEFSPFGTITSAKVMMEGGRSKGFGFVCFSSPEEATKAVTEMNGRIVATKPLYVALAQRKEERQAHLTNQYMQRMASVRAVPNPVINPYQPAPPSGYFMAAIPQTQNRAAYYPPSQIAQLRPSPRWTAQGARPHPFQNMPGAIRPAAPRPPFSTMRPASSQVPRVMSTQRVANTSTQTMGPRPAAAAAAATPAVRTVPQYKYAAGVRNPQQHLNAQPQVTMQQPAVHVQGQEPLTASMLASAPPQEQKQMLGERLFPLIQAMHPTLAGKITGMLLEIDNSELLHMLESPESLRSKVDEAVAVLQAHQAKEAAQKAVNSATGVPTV

[3] = biological target: T3, Eukaryotic translation initiation factor 4H (Homo sapiens, UniProt Q15056); experiment: human eIF4H binding inhibitors, primary screen, translation initiation inhibitor project, biochemical, uHTS, fluorescence polarization (AID 2012)
[4] = biological target: T2, Polyadenylate-binding protein 1; experiment: PABP inhibition in translation initiation, SAR follow-up (AID 435018); assay type: functional
[5] = Luminescence Cell-Based Dose Confirmation HTS to Identify Inhibitors of Platelet Dense Granule Release. [Related pubchem assays: 1663 (Primary HTS), 1678 (Summary of Project)]; assay type: functional
[6] = biological target: Luciferin 4-monooxygenase (Photinus pyralis, UniProt P08659); experiment: firefly luciferase enzyme inhibitors, dose response, biochemical, luminescence (AID 1891)
[7] = biological target: T3, Eukaryotic translation initiation factor 4H; experiment: eIF4H inhibition in translation initiation, SAR follow-up (AID 435011); assay type: functional
[8] = biological target: G-protein coupled receptor 55 (Homo sapiens, UniProt Q9Y2T6); experiment: GPR55 antagonists blocking LPI-driven arrestin recruitment, primary screen, imaging, U2OS, beta-arrestin-GFP, LPI agonist (AID 2013); assay type: functional;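 also: antagonist potency measured as reduced agonist-driven arrestin aggregation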
[9] = biological target: T4, Rac GTPase-activating protein 1 (Homo sapiens, UniProt Q9H0H5); experiment: MgcRacGAP GTPase-activating activity inhibitors, confirmation, biochemical, ADP Hunter fluorescence, primary and confirmatory (AID 624330); assay type: functional
T4 sequence (Q9H0H5 whole entry): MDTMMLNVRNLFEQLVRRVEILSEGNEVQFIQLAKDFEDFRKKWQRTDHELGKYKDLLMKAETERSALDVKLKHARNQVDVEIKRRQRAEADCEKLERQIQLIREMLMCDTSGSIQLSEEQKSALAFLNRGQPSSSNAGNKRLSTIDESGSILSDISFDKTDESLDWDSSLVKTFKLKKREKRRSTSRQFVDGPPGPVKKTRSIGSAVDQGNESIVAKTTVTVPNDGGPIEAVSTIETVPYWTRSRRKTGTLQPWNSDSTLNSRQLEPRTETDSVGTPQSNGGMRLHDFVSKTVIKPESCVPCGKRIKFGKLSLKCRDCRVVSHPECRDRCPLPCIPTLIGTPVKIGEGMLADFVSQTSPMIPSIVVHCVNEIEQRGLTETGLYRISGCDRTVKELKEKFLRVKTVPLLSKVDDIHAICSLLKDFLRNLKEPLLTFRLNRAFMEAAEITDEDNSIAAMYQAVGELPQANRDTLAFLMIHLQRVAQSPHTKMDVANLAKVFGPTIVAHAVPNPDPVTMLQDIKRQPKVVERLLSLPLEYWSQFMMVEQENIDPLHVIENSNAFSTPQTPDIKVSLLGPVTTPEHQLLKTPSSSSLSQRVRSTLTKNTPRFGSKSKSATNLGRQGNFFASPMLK

[10] = biological target: Beta-galactosidase (Escherichia coli, UniProt Q8VNN2); assay type: functional
[11] = biological target: T5, Kappa-type opioid receptor (Homo sapiens, UniProt P41145); assay type: functional
T5 sequence (P41145 whole entry): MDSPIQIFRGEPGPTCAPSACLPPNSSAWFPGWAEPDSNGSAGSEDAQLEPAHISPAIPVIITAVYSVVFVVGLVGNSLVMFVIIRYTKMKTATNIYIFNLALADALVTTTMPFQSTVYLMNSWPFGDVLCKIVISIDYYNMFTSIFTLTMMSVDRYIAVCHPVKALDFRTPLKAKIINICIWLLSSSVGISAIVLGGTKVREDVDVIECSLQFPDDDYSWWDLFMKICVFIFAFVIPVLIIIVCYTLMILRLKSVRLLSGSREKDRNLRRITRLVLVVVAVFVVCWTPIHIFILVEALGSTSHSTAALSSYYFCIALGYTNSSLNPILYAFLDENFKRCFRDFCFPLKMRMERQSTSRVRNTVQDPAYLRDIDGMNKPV

[12] = HeLa cell cytotoxicity, dose response, cytotoxicity control for MgcRacGAP inhibitor project (AID 624300); assay type: functional
[13] = system: HeLa; experiment: HeLa cell cytotoxicity, dose response, cytotoxicity control for MITF activator project, CellTiter-Glo luminescence, cherry-pick samples (AID 540259); assay type: functional, cell-based; conditions: Homo sapiens
[14] = biological target: T5, Kappa-type opioid receptor; assay type: functional; remark: listed apart in the source
[15] = blockers of SFLLRN-triggered platelet ATP secretion – cell-based, human platelets, luminescence, dry powder, dose response (AID 493100); assay type: functional
[16] = biological target: Bcl-2-like protein 10 (Homo sapiens, UniProt Q9HD36); experiment: displacers of TR3 peptide from Bcl-B, primary screen, selectivity assay for Bfl-1 inhibitor project, biochemical, fluorescence polarization, FITC-TR3 peptide (AID 748);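 also: fluorescence polarization from a fluorescein-labelled TR3 peptide binding purified Bcl-B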
Chain of Bcl-2-like protein 10 (Q9HD36 whole entry): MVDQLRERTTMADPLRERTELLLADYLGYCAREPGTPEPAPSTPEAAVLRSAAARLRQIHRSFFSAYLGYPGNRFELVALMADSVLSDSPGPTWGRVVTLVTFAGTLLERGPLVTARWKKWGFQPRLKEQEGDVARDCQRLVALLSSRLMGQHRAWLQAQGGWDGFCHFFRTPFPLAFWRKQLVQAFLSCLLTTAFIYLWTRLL

[17] = biological target: T6, Voltage-gated N-type calcium channel alpha-1B subunit/Amyloid beta A4 precursor protein-binding family A member 1 (Homo sapiens, UniProt Q00975+Q02410); experiment: disruptors of Mint-PDZ/N-type channel peptide interaction – biochemical, HTRF, set 2, SAR follow-up (AID 434980); assay type: functional
T6 sequence (Q00975 whole entry): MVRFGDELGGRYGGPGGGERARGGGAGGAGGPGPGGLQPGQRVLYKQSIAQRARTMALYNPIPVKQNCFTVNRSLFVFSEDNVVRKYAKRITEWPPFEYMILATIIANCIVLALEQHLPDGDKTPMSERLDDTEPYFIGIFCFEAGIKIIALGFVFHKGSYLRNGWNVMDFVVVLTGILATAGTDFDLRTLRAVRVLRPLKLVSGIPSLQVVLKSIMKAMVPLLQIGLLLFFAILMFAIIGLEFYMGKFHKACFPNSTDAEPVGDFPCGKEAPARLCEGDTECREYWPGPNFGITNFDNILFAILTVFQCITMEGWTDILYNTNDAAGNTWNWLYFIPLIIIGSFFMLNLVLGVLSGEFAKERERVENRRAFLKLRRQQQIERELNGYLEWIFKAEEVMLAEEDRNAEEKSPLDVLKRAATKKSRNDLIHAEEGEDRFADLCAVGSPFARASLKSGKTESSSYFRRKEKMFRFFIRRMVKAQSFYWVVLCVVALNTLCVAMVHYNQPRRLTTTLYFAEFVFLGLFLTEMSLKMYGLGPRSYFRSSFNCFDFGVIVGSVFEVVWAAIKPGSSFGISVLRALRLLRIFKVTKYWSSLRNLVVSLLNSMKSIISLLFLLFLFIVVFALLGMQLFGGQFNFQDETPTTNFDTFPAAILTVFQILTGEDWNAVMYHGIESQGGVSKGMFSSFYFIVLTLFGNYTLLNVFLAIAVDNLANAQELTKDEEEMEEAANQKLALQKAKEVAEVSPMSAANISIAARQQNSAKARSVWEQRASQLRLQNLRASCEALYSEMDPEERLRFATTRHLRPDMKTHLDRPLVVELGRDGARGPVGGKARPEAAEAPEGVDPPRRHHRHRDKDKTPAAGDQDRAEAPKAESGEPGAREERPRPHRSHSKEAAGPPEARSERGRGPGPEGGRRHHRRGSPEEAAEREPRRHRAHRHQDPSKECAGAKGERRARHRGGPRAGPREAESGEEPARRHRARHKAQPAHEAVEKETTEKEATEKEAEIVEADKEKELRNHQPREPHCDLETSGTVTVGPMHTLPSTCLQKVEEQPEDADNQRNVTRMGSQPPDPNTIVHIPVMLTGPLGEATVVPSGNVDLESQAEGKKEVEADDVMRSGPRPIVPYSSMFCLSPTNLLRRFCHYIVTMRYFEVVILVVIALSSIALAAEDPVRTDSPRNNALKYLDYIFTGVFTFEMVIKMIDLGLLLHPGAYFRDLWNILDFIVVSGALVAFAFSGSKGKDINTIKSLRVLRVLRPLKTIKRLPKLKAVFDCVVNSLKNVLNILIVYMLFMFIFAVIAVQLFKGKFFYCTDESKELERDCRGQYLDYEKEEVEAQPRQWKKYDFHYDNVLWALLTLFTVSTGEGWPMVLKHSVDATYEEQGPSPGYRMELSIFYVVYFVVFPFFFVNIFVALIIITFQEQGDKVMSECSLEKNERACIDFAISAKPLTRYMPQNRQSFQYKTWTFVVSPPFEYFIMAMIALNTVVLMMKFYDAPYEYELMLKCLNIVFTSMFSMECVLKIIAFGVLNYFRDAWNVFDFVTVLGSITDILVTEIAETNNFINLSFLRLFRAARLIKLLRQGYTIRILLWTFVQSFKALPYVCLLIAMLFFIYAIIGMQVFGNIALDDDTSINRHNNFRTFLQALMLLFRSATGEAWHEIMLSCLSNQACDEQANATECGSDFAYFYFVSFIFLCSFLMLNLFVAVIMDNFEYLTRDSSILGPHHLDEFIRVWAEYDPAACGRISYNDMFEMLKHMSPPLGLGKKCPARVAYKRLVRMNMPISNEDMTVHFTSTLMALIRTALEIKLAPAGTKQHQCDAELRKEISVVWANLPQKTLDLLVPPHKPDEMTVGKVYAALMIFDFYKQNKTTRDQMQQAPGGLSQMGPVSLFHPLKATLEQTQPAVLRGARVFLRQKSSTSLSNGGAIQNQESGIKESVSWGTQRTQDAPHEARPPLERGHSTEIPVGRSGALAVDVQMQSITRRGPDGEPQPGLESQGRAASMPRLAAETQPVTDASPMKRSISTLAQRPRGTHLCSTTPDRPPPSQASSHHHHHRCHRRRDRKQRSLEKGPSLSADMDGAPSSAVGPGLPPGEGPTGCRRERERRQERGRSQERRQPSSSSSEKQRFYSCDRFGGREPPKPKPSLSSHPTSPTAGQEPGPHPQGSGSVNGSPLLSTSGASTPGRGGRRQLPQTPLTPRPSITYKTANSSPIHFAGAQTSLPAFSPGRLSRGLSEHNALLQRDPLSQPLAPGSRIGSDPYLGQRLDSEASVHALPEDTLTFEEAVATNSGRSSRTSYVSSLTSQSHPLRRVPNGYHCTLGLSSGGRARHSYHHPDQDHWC
T6 sequence (Q02410 whole entry): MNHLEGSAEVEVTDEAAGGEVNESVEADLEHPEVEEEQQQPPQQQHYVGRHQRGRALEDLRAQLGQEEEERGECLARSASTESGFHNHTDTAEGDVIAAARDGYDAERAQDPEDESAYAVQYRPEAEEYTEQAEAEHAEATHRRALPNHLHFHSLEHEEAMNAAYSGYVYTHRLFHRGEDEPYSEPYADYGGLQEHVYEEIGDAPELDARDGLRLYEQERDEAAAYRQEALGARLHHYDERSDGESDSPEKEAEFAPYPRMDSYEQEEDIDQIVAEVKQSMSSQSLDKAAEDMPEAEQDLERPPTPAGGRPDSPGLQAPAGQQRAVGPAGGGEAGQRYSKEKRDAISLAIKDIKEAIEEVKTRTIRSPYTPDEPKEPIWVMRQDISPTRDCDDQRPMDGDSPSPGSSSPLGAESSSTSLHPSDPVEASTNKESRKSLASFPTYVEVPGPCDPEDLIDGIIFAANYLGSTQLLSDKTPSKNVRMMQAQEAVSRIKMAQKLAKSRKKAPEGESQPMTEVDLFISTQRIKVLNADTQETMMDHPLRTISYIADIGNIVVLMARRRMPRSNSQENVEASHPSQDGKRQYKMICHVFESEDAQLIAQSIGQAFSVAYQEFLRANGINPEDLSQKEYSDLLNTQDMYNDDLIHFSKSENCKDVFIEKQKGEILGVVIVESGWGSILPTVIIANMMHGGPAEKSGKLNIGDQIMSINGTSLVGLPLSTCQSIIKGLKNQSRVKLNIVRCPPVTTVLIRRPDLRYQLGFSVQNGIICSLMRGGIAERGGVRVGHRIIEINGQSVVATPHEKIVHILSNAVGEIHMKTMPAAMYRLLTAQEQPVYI

[18] = biological target: T6, Voltage-gated N-type calcium channel alpha-1B subunit/Amyloid beta A4 precursor protein-binding family A member 1; experiment: disruptors of Mint-PDZ/N-type channel peptide interaction – biochemical, HTRF, SAR follow-up (AID 2489); assay type: functional
[19] = biological target: Cytochrome P450 2C19 (Homo sapiens, UniProt P33261); experiment: Cytochrome panel assay with activity outcomes. Panel member name: p450-cyp2c19 Compounds with AC50 equal or less than 10 uM are considered active; assay type: functional; conditions: read-out: AC50
[20] = system: T-cell; experiment: inhibitors of CD8+ T cell–vesicle binding, dose response, mouse 2C CD8+ T cells, flow cytometry (AID 485284); assay type: functional
[21] = biological target: G2/mitotic-specific cyclin-B1 (Homo sapiens, UniProt P14635); experiment: G2/M cell cycle arrest in HeLa, late-stage follow-up, mechanism study for Wee1 degradation inhibitor project, FACS, panel member Cyclin B Degradation (AID 2088)
Chain of G2/mitotic-specific cyclin-B1 (P14635 whole entry): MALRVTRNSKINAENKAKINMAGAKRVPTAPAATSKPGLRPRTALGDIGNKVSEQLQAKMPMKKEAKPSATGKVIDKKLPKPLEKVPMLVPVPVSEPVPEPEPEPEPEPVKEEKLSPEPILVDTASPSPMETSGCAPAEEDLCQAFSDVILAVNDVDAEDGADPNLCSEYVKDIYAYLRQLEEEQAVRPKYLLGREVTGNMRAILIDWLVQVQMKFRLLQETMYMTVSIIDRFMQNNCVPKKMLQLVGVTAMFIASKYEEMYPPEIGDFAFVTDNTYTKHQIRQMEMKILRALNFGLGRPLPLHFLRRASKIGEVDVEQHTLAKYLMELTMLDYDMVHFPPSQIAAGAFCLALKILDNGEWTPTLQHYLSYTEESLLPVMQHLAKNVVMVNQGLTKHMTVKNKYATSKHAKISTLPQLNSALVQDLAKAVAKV

[22] = biological target: Wee1-like protein kinase (Homo sapiens, UniProt P30291); experiment: G2/M cell cycle arrest in HeLa, late-stage follow-up, mechanism study for Wee1 degradation inhibitor project, FACS, panel member Wee1 Degradation (AID 2088)
[23] = system: HEK293; experiment: NOD1 signaling inhibitors, primary screen, cell-based, luminescence, uHTS (AID 1578); assay type: functional; conditions: Homo sapiens
[24] = system: HEK293; experiment: cells; assay type: functional, cell-based; conditions: Homo sapiens
[25] = biological target: T7, Fatty acid synthase (Homo sapiens, UniProt P49327); experiment: FAS thioesterase domain inhibitors, dose response, biochemical, kinetic fluorescence intensity (AID 624326); assay type: functional;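 also: rate of fluorescence rise from hydrolysis of a fluorogenic O-methyl fluorescein ester substrate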
[26] = biological target: Nucleotide-binding oligomerization domain-containing protein 2 (Homo sapiens, UniProt Q9HC29); experiment: NOD2 signaling inhibitors, cell-based, luminescence, uHTS, HEK293 (AID 1566); assay type: functional
[27] = microbe, parasite or virus in culture; assay type: functional; conditions: Mycobacterium tuberculosis
[28] = system: Streptococcus sp. 'group A'; experiment: growth inhibition of control SK(-) GAS strain, dose response, counter-screen for streptokinase expression inhibitor project, luminescence, kanamycin, BacTiterGlo, confirmation (AID 1900); assay type: functional, organism-based
[29] = system: HEK293; experiment: cells; assay type: functional, cell-based; conditions: Homo sapiens; remark: listed apart in the source
[30] = system: HEK293; experiment: NOD2 signaling inhibitors in MDP-stimulated cells, cell-based, uHTS, luminescence (AID 2001); assay type: functional; conditions: Homo sapiens
[31] = system: Streptococcus; experiment: Group A Streptococcus viability loss, dose response, counter-screen for streptokinase expression inhibitor project, luminescence, BacTiterGlo (AID 1915); assay type: functional, organism-based;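 also: potency for reduction of bacterial viability or growth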
[32] = biological target: T7, Fatty acid synthase; experiment: FAS thioesterase domain inhibitors, dose response, biochemical, endpoint fluorescence intensity, uHTS hits (AID 624327); assay type: functional;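 also: fluorescence from hydrolysis of an O-methyl fluorescein acyl ester substrate by the enzyme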
[33] = system: HEK293; experiment: cells; assay type: functional, cell-based; conditions: Homo sapiens; remark: listed apart in the source
[34] = system: INS1; experiment: beta cell apoptosis inhibitors, cytokine rescue, dose response, luminescence, retest (AID 449756); assay type: functional, cell-based; conditions: Rattus norvegicus;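 also: cell death triggered by IL-1 beta plus TNF-alpha plus IFN-gamma mixture; protective hits raise ATP signal compared with cytokine alone wells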
[35] = biological target: Intestinal-type alkaline phosphatase (Mus musculus, UniProt P24822); experiment: PubChem AID 488785; assay type: functional
[36] = biological target: T8, Alkaline phosphatase, tissue-nonspecific isozyme (Homo sapiens, UniProt P05186); experiment: TNAP enzyme inhibition by screening hits, dose response, selectivity assay for mouse IAP inhibitor project, biochemical, human TNAP, uHTS hits (AID 488906); assay type: functional
T8 sequence (P05186 whole entry): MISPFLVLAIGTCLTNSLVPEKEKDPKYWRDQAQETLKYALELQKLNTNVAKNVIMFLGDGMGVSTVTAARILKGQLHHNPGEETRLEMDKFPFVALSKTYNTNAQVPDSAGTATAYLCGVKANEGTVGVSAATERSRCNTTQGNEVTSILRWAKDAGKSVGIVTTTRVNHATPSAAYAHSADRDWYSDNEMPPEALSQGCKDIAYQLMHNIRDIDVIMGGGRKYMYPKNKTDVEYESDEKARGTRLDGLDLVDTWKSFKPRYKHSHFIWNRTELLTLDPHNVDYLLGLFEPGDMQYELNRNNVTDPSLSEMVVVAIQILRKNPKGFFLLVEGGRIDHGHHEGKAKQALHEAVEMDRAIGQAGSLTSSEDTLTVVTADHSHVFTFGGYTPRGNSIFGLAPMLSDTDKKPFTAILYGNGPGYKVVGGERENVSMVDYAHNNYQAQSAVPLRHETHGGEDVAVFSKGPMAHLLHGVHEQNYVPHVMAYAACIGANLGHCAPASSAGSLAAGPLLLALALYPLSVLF

[37] = system: Vero; experiment: cells; assay type: functional; conditions: Chlorocebus sabaeus
[38] = biological target: Intestinal-type alkaline phosphatase (Homo sapiens, UniProt P09923); experiment: activation of human intestinal alkaline phosphatase – biochemical, dose response (AID 488873); assay type: functional

SMILES: COc1ccc(N2CCN(C(=O)c3c(-c4ccccc4)noc3C)CC2)cc1
- IC50 [1]: > 50 µM (inactive)

SMILES: CCN1CCN(S(=O)(=O)c2ccc(Cl)c(C(=O)Nc3ccc(C(=O)N(CC)CC)cc3)c2)CC1
- IC50 [2]: 15.1 µM (active)
- IC50 [3]: > 100 µM (inactive)
- IC50 [4]: 1.33 µM (active)
- EC50 [5]: > 112 µM (not active)
- EC50 [6]: > 112 µM (not active)
- IC50 [7]: > 100 µM (inactive)

SMILES: CN(C1CCCCC1)S(=O)(=O)c1ccc(NC(=O)C2CCCCC2C(=O)O)cc1 (stereo not drawn)
- IC50 [8]: 4.72 µM (active)

SMILES: COc1cc(/C=C2\SC(=S)N(Nc3ccccc3)C2=O)ccc1O
- IC50 [9]: 55.7 µM (active)
- EC50 [10]: 9.67 µM (active)
- IC50 [11]: 8.41 µM (active)
- CC50 [12]: 100 µM (active)
- AC50 [13]: 41 µM (active)
- IC50 [14]: > 32 µM

SMILES: CCCC(=O)Nc1cccc(NC(=O)c2ccccc2Cl)c1
- AC50 [15]: 6.09 µM (active)

SMILES: Cc1ccc2nc3sc(-c4nnc(-c5ccccc5[N+](=O)[O-])o4)c(N)c3cc2c1
- IC50 [16]: > 100 µM (inactive)

SMILES: O=C(NCCc1cccnc1)c1cc(-c2ccco2)nc2ccccc12
- IC50 [17]: > 56.8 µM (inactive)
- IC50 [18]: 29.2 µM (active)

SMILES: COc1ccc(C(=O)C2=C(O)C(=O)N(Cc3cccnc3)C2c2ccco2)cc1OC (stereo not drawn)
- AC50 [19]: 0.0891 µM (inconclusive)
- EC50 [20]: 64 µM (inactive)

SMILES: c1cc2[nH]c3c(c2c2nonc12)CCCC3
- EC50 [21]: > 49.7 µM (inactive)
- EC50 [22]: > 49.7 µM (inactive)

SMILES: CCOc1ccc(-c2csc(/C(C#N)=C\c3ccc(O)c([N+](=O)[O-])c3)n2)cc1
- EC50 [23]: 1.52 µM (active)
- IC50 [24]: 1.83 µM (active)
- IC50 [25]: 6.74 µM (active)
- EC50 [26]: 6.23 µM (active)
- CC50 [27]: 10.5 µM (active)
- EC50 [28]: 2.18 µM (active)
- IC50 [29]: > 20 µM (inactive)
- IC50 [30]: 2.58 µM (inactive)
- EC50 [31]: 3.58 µM (active)
- IC50 [32]: 6.61 µM (active)
- IC50 [33]: 6.63 µM (active)
- AC50 [34]: 4 µM (active)

SMILES: Cc1c(CN2CCC(C(=O)Nc3cccc(-c4cccc(Cl)c4)c3)CC2)cnn1C
- IC50 [35]: 4.27 µM (active)
- IC50 [36]: > 100 µM (inactive)
- CC50 [37]: 16.1 µM (active)
- EC50 [38]: 37.2 µM (active)
